# Results: patent publication US12655116B2, “Substituted isophthalic acid diamides” (Bayer Aktiengesellschaft, priority 2020, dated 2026)
# Experiments:
# [1] = system: SETVI; assay: Post-emergence herbicidal action against SETVI; type: in vivo, Setaria viridis
# How it was run: (§1)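 Spray, one-leaf stage: WP or EC compound in water, 600–800 l/ha, 0.2% wetting agent. Plants held about 3 weeks in the greenhouse, then visually rated in percent of kill compared with untreated controls.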
# [2] = system: AMARE; assay: Post-emergence herbicidal action against AMARE; type: in vivo, Amaranthus retroflexus; settings: 20 g/ha, visual assessment about 3 weeks after treatment, 100% = plants have died, 0% = like control plants
# How it was run: as §1
# [3] = system: VIOTR; assay: Pre-emergence herbicidal action against VIOTR; type: in vivo, Viola tricolor
# How it was run: (§2)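 Pre-emergence soil-surface spray of formulated compound (WP or EC; 600 to 800 l/ha; 0.2% wetting agent) over seeds sown in sandy loam. After 3 weeks under greenhouse conditions, damage is estimated visually in percent against untreated plants.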
# [4] = system: ECHCG; assay: Post-emergence herbicidal action against ECHCG; type: in vivo, Echinochloa crus-galli
# How it was run: as §1
# [5] = system: SETVI; assay: Pre-emergence herbicidal action against SETVI; type: in vivo, Setaria viridis
# How it was run: as §2
# [6] = system: AVEFA; assay: Pre-emergence herbicidal action against AVEFA; type: in vivo, Avena fatua; settings: 80 g/ha, pre-emergence
# How it was run: as §2
# [7] = system: AMARE; assay: Pre-emergence herbicidal action against AMARE; type: in vivo, Amaranthus retroflexus
# How it was run: as §2
# [8] = system: ABUTH; assay: Post-emergence herbicidal action against ABUTH; type: in vivo, Abutilon theophrasti; settings: visual assessment about 3 weeks after treatment vs untreated controls
# How it was run: as §1
# [9] = system: ECHCG; assay: Pre-emergence herbicidal action against ECHCG; type: in vivo, Echinochloa crus-galli; settings: 80 g/ha
# How it was run: as §2
# [10] = system: AVEFA; assay: Post-emergence herbicidal action against AVEFA; type: in vivo, Avena fatua; settings: 20 g/ha, visual assessment about 3 weeks after treatment, 100% = plants have died, 0% = like control plants
# How it was run: as §1
# [11] = system: MATIN; assay: Post-emergence herbicidal action against MATIN; type: in vivo, Matricaria inodora
# How it was run: as §1
# [12] = system: ALOMY; assay: Post-emergence herbicidal action against ALOMY; type: in vivo, Alopecurus myosuroides; settings: dosage 20 g/ha, visual assessment about 3 weeks after treatment vs untreated controls
# How it was run: as §1
# [13] = system: PHBPU; assay: Pre-emergence herbicidal action against PHBPU; type: in vivo, Pharbitis purpurea; settings: dosage 80 g/ha
# How it was run: as §2
# [14] = system: POLCO; assay: Pre-emergence herbicidal action against POLCO; type: in vivo, Polygonum convolvulus; settings: dosage 80 g/ha
# How it was run: as §2
# [15] = system: ALOMY; assay: Pre-emergence herbicidal action against ALOMY; type: in vivo, Alopecurus myosuroides; settings: pre-emergence
# How it was run: as §2
# [16] = system: PHBPU; assay: Post-emergence herbicidal action against PHBPU; type: in vivo, Pharbitis purpurea
# How it was run: as §1
# [17] = system: VIOTR; assay: Post-emergence herbicidal action against VIOTR; type: in vivo, Viola tricolor
# How it was run: as §1
# [18] = system: ABUTH; assay: Pre-emergence herbicidal action against ABUTH; type: in vivo, Abutilon theophrasti
# How it was run: as §2
# [19] = system: DIGSA; assay: Pre-emergence herbicidal action against DIGSA; type: in vivo, Digitaria sanguinalis; settings: Digitaria sanguinalis, 504 h
# How it was run: as §2
# [20] = system: DIGSA; assay: Post-emergence herbicidal action against DIGSA; type: in vivo, Digitaria sanguinalis
# How it was run: as §1
# [21] = system: MATIN; assay: Pre-emergence herbicidal action against MATIN; type: in vivo, Matricaria inodora
# How it was run: as §2
# [22] = system: VERPE; assay: Pre-emergence herbicidal action against VERPE; type: in vivo, Veronica persica; settings: dosage 80 g/ha
# How it was run: as §2
# [23] = Setaria viridis, 504 h, dosage 20 g/ha
# [24] = Tripleurospermum inodorum, 504 h, dosage 20 g/ha
# [25] = 80 g/ha, scored visually after 3 weeks vs untreated controls (100% = plants have died, 0% = like control plants)
structure (smiles),measurement,setting,value
CCn1nnnc1NC(=O)c1ccc(C(F)(F)F)c(C(=O)NC2CC2)c1OC [Example 2-58],pest or weed control at 5 g/ha,"[1]; Setaria viridis, 504 h, dosage 5 g/ha",90%
same,pest or weed control at 20 g/ha,[1]; [23],100%
same,pest or weed control at 20 g/ha,"[2]; Amaranthus retroflexus, 504 h",100%
same,pest or weed control at 20 g/ha,"[3]; Viola tricolor, 504 h, dosage 20 g/ha",100%
same,pest or weed control at 80 g/ha,"[3]; Viola tricolor, 504 h, dosage 80 g/ha",100%
same,pest or weed control at 5 g/ha,"[4]; Echinochloa crus-galli, 504 h, dosage 5 g/ha",90%
same,pest or weed control at 20 g/ha,"[4]; Echinochloa crus-galli, 504 h, dosage 20 g/ha",100%
same,pest or weed control at 20 g/ha,[5]; [23],100%
same,pest or weed control at 80 g/ha,"[5]; Setaria viridis, 504 h, dosage 80 g/ha",100%
same,pest or weed control at 80 g/ha,"[6]; Avena fatua, 504 h",90%
same,pest or weed control at 20 g/ha,"[7]; Amaranthus retroflexus, 504 h, 20 g/ha, scored visually after 3 weeks vs untreated controls, 100% = plants have died, 0% = like control plants",100%
same,pest or weed control at 80 g/ha,"[7]; Amaranthus retroflexus, 504 h, 80 g/ha, scored visually after 3 weeks vs untreated controls, 100% = plants have died, 0% = like control plants",100%
same,pest or weed control at 5 g/ha,"[8]; Abutilon theophrasti, 504 h, dosage 5 g/ha",100%
same,pest or weed control at 20 g/ha,"[8]; Abutilon theophrasti, 504 h, dosage 20 g/ha",100%
same,pest or weed control at 80 g/ha,"[9]; Echinochloa crus-galli, 504 h",100%
same,pest or weed control at 20 g/ha,"[10]; Avena fatua, 504 h",80%
same,pest or weed control at 5 g/ha,"[11]; Tripleurospermum inodorum, 504 h, dosage 5 g/ha",80%
same,pest or weed control at 20 g/ha,[11]; [24],90%
same,pest or weed control at 20 g/ha,"[12]; Alopecurus myosuroides, 504 h",80%
same,pest or weed control at 80 g/ha,"[13]; Ipomoea purpurea, 504 h",90%
same,pest or weed control at 80 g/ha,"[14]; Fallopia convolvulus, 504 h",80%
same,pest or weed control at 80 g/ha,"[15]; Alopecurus myosuroides, 504 h, 80 g/ha, scored visually after 3 weeks vs untreated controls (100% = plants have died, 0% = like control plants)",100%
same,pest or weed control at 20 g/ha,"[15]; Alopecurus myosuroides, 504 h, 20 g/ha, scored visually after 3 weeks, 100% = plants have died, 0% = like control plants",90%
same,pest or weed control at 20 g/ha,"[16]; Ipomoea purpurea, 504 h, dosage 20 g/ha",90%
same,pest or weed control at 5 g/ha,"[17]; Viola tricolor, 504 h, 5 g/ha",100%
same,pest or weed control at 20 g/ha,"[17]; Viola tricolor, 504 h, 20 g/ha",100%
same,pest or weed control at 80 g/ha,"[18]; Abutilon theophrasti, 504 h, 80 g/ha, scored visually after 3 weeks vs untreated controls (100% = plants have died, 0% = like control plants)",100%
same,pest or weed control at 20 g/ha,"[18]; Abutilon theophrasti, 504 h, dosage 20 g/ha, scored visually after 3 weeks vs untreated controls, 100% = plants have died, 0% = like control plants, read-out: Pre-emergence action against ABUTH (herbicidal activity in percent)",100%
same,pest or weed control at 20 g/ha,[19]; dosage 20 g/ha,100%
same,pest or weed control at 80 g/ha,[19]; dosage 80 g/ha,100%
same,pest or weed control at 5 g/ha,"[20]; Digitaria sanguinalis, 504 h, 5 g/ha",100%
same,pest or weed control at 20 g/ha,"[20]; Digitaria sanguinalis, 504 h, 20 g/ha",100%
same,pest or weed control at 20 g/ha,[21]; [24],100%
same,pest or weed control at 80 g/ha,"[21]; Tripleurospermum inodorum, 504 h, dosage 80 g/ha",100%
CCNC(=O)c1c(C(F)(F)F)ccc(C(=O)Nc2nnnn2CC)c1CC [Example 2-272],Post-emergence action against SETVI in %,[1]; dosage 5 g/ha,90%
same,Post-emergence action against SETVI in %,[1]; dosage 20 g/ha,100%
same,Post-emergence action at 20 g/ha against AMARE in %,[2],100%
same,Pre-emergence action against VIOTR in %,[3]; dosage 20 g/ha,90%
same,Pre-emergence action against VIOTR in %,[3]; dosage 80 g/ha,100%
same,Post-emergence action against ECHCG in %,[4]; dosage 5 g/ha,80%
same,Post-emergence action against ECHCG in %,[4]; dosage 20 g/ha,90%
same,Pre-emergence action against VERPE in %,[22],90%
same,Pre-emergence action against SETVI in %,[5]; dosage 80 g/ha,100%
same,Pre-emergence action against AVEFA in %,[6],80%
same,Pre-emergence action against AMARE in %,"[7]; 20 g/ha, scored visually after 3 weeks vs untreated controls, 100% = plants have died, 0% = like control plants",100%
same,Pre-emergence action against AMARE in %,[7]; [25],100%
same,Post-emergence action against ABUTH in %,[8]; dosage 5 g/ha,90%
same,Post-emergence action against ABUTH in %,[8]; dosage 20 g/ha,90%
same,Pre-emergence action against ECHCG in %,[9],100%
same,Post-emergence action at 20 g/ha against AVEFA in %,[10],80%
same,Post-emergence action against MATIN in %,[11]; dosage 5 g/ha,80%
same,Post-emergence action against MATIN in %,[11]; dosage 20 g/ha,80%
same,Post-emergence action against ALOMY in %,[12],90%
same,Pre-emergence action against PHBPU in %,[13],80%
same,Pre-emergence action against POLCO in %,[14],80%
same,Pre-emergence action against ALOMY (herbicidal activity),[15]; [25],90%
same,Post-emergence action against PHBPU in %,[16]; dosage 5 g/ha,90%
same,Post-emergence action against PHBPU in %,[16]; dosage 20 g/ha,100%
same,Post-emergence action against VIOTR in %,[17]; 20 g/ha,80%
same,Pre-emergence action against ABUTH (herbicidal activity),[18]; [25],100%
same,Pre-emergence action against ABUTH (herbicidal activity in percent),"[18]; dosage 20 g/ha, scored visually after 3 weeks vs untreated controls, 100% = plants have died, 0% = like control plants",100%
same,Post-emergence action against DIGSA in %,[20]; 5 g/ha,90%
same,Post-emergence action against DIGSA,[20]; 20 g/ha,90%
same,Pre-emergence action against MATIN in %,[21]; dosage 20 g/ha,100%
same,Pre-emergence action against MATIN in %,[21]; dosage 80 g/ha,100%
